Laboratory results from patent US8455492B2, “Methods for treating retinal diseases” (Allergan, Inc., priority 1995, dated 2013).
Where two headings read alike, the source gives them in different places.

Tests used:
[1] = tested on: rat hippocampal neuronal cultures; experiment: Glutamate induced excitotoxic effects on nerve cells (percentage of dead cells, trypan blue); type: cell-based; details: FIG. 1; day 8; 1 mM glutamate; AGN-191103 0.1 nM, MK-801 10 nM
Method: Low-density rat hippocampal neuronal cultures were prepared by the procedure of Goslin and Banker. […] Coverslips (13 mm) were placed in staining racks, rinsed in distilled water (four rinses, 1 min. each) to remove dust and transferred to concentrated HNO3 for 36 hours. Coverslips were rinsed in distilled water (four changes over 3 hours) and sterilized with dry heat (overnight at 225° C.). The coverslips were transferred to 24-well dishes, one coverslip per well. To support the coverslips above the glia during coculturing, paraffin dots were placed on dishes, and UV irradiation (30 min.) was applied before the coverslips were introduced. One mg/mL of poly-L-lysine hydrobromide (PLL) (Sigma) (MW 30,000-70,000) was dissolved in borate buffer (0.1 M, pH 8.5), filtered, sterilized and used to cover each coverslip overnight. The PLL was removed, coverslips were rinsed in distilled water (two washes, 2 hrs. each), plating medium [Eagle's MEM with Earle's salts containing extra glucose (600 mg/L) and 10% horse serum] was added and the dishes were stored in an incubator. […]
After 24 hrs. of incubation, cells were stained with trypan blue. Live and dead neurons were counted from randomly selected culture fields (5 fields from each coverslip). Percentage of dead cells was calculated.

[2] = tested on: retina; details: FIG. 5; topical 10 μl one hour before ischemia insult; ERG one week after insult
Method: FIG. 5 is a bar graph showing the results of a study to determine the topical efficacy of brimonidine in neuroprotection. The rat acute retinal ischemia model was used to provide the noxious action. Brimonidine was applied topically one hour before ischemia insult, 10 μl to one eye, 10 μl saline to the other eye. The ERG (electroretinogram) was measured one week after the insult.

[3] = tested on: intraocular pressure; details: rabbits; topical to the cornea; cited from earlier work
[4] = tested on: intraocular pressure; details: cats; topical to the cornea; cited from earlier work
[5] = tested on: intraocular pressure; details: monkeys; topical to the cornea; cited from earlier work
[6] = tested on: rat optic nerve; details: FIG. 3, optic nerve crush in rats

For `C[C@]12N[C@H](Cc3ccccc31)c1ccccc12` [MK-801, dizocilpine], the “protection of cells from glutamate induced neurotoxicity (percentage of cells killed)” value [1] was “comparable effects in protecting cells from glutamate induced neurotoxicity”.

For `Brc1c(NC2=NCCN2)ccc2nccnc12` [brimonidine], the “topical neuroprotection (percent of ERG signal recovery)” value [2] is listed as “provides topical neuroprotection in a dose dependent manner”, the “reduction of intraocular pressure” value [3] is listed as “effective in reducing intraocular pressure” and the “reduction of intraocular pressure” value [4] is listed as “effective in reducing intraocular pressure”. For the same compound, the “reduction of intraocular pressure” value [5] was “effective in reducing intraocular pressure”.

In the case of `Clc1cccc(Cl)c1N=C1NCCN1` [clonidine], the “maximal CAP response relative to AGN 191103” value [6] is reported as “about half the maximal CAP response of AGN 191013” and the “neuroprotective activity (maximal CAP amplitude) versus vehicle” value ([6]; four concentrations) is reported as “some neuroprotective activity over vehicle alone”.
